In US20250051356A1, “RIFABUTIN ANALOGS FOR THE TREATMENT OF DISEASE” (priority 2021, published 2025):
Converted amounts (≈) assume the structure as drawn. Where two headings read alike, the source gives them in different places.

Columns and labels:
Assay type in all cases: cell-based
[1] = test system: A. baumannii (HUMC1 strain); test: MIC by broth microdilution against A. baumannii in RPMI + 10% FCS; settings: Acinetobacter baumannii, read-out: MIC A. baumannii
[2] = test system: S. aureus (UAMS-1625 strain); test: MIC by broth microdilution against S. aureus; settings: Staphylococcus aureus, read-out: MIC S. aureus
[3] = test system: M. abscessus subsp. abscessus ATCC 19977; test: MIC against M. abscessus in Middlebrook 7H9 + ADC; settings: Mycobacteroides abscessus
[4] = ATCC19977, ATCC 19977, 7H9 + ADC, read-out: MIC M. abscessus

## CO[C@H]1/C=C/O[C@@]2(C)Oc3c(C)c(O)c4c(c3C2=O)C2=NC3(CCN(CC(C)C)CC3)NC2=C(NC(=O)/C(C)=C\C=C\[C@H](C)[C@H](O)[C@@H](C)[C@@H](O)[C@@H](C)[C@H](OC(=O)CC(=O)N2CCC(n3cccn3)CC2)[C@@H]1C)C4=O [Compound 60]
[1]; HUMC1 strain, RPMI + 10% FCS
  MIC: ≤ 0.002 µg/mL
[2]
  MIC: 0.03 µg/mL (≈ 0.0293 µM)
[3]; [4]
  MIC: 0.5 µg/mL

## CO[C@H]1/C=C/O[C@@]2(C)Oc3c(C)c(O)c4c(c3C2=O)C2=NC3(CCN(CC(C)C)CC3)NC2=C(NC(=O)/C(C)=C\C=C\[C@H](C)[C@H](O)[C@@H](C)[C@@H](O)[C@@H](C)[C@H](OC(=O)CC(=O)N2CCN(C3CN(C)C3)CC2)[C@@H]1C)C4=O [Compound 111]
[1]; HUMC1 strain, RPMI + 10% FCS
  MIC: 0.06 µg/mL
[2]
  MIC: 0.125 µg/mL (≈ 0.122 µM)
[3]; [4]
  MIC: 0.5 µg/mL

## CO[C@H]1/C=C/O[C@@]2(C)Oc3c(C)c(O)c4c(c3C2=O)C2=NC3(CCN(CC(C)C)CC3)NC2=C(NC(=O)/C(C)=C\C=C\[C@H](C)[C@H](O)[C@@H](C)[C@@H](O)[C@@H](C)[C@H](OC(=O)CC(=O)N2CCC(N3CCN(C)C(=O)C3)CC2)[C@@H]1C)C4=O [Compound 15]
[1]; HUMC1 strain, RPMI + 10% FCS
  MIC: 0.004 µg/mL
[2]
  MIC: 0.016 µg/mL (≈ 0.0149 µM)
[3]; [4]
  MIC: 1 µg/mL

## CO[C@H]1/C=C/O[C@@]2(C)Oc3c(C)c(O)c4c(c3C2=O)C2=NC3(CCN(CC(C)C)CC3)NC2=C(NC(=O)/C(C)=C\C=C\[C@H](C)[C@H](O)[C@@H](C)[C@@H](O)[C@@H](C)[C@H](OC(=O)CC(=O)N2CCC(NS(=O)(=O)c3ccccc3)CC2)[C@@H]1C)C4=O [Compound 61]
[1]
  MIC: 0.008 µg/mL
[2]
  MIC: 0.125 µg/mL (≈ 0.112 µM)
[3]; ATCC19977, read-out: MIC M. abscessus
  MIC: 0.5 µg/mL

## CO[C@H]1/C=C/O[C@@]2(C)Oc3c(C)c(O)c4c(c3C2=O)C2=NC3(CCN(CC(C)C)CC3)NC2=C(NC(=O)/C(C)=C\C=C\[C@H](C)[C@H](O)[C@@H](C)[C@@H](O)[C@@H](C)[C@H](OC(=O)CC(=O)N2CC(Nc3ccc(F)cc3)C2)[C@@H]1C)C4=O [Compound 63]
[1]; HUMC1 strain, RPMI + 10% FCS
  MIC: 0.016 µg/mL
[2]
  MIC: 0.25 µg/mL (≈ 0.241 µM)
[3]; [4]
  MIC: 0.5 µg/mL

## CO[C@H]1/C=C/O[C@@]2(C)Oc3c(C)c(O)c4c(c3C2=O)C2=NC3(CCN(CC(C)C)CC3)NC2=C(NC(=O)/C(C)=C\C=C\[C@H](C)[C@H](O)[C@@H](C)[C@@H](O)[C@@H](C)[C@H](OC(=O)CC(=O)N2CCC(n3c(=O)[nH]c5cc(Cl)ccc53)CC2)[C@@H]1C)C4=O [Compound 47]
[1]; HUMC1 strain, RPMI + 10% FCS
  MIC: 0.125 µg/mL
[2]
  MIC: 1 µg/mL (≈ 0.889 µM)
[3]; [4]
  MIC: 0.5 µg/mL

## CO[C@H]1/C=C/O[C@@]2(C)Oc3c(C)c(O)c4c(c3C2=O)C2=NC3(CCN(CC(C)C)CC3)NC2=C(NC(=O)/C(C)=C\C=C\[C@H](C)[C@H](O)[C@@H](C)[C@@H](O)[C@@H](C)[C@H](OC(=O)CC(=O)N2CCN(CCN(C)C)CC2)[C@@H]1C)C4=O [Compound 113]
[1]; HUMC1 strain, RPMI + 10% FCS
  MIC: 0.06 µg/mL
[2]
  MIC: 0.06 µg/mL (≈ 0.0582 µM)
[3]; [4]
  MIC: 0.5 µg/mL

## CO[C@H]1/C=C/O[C@@]2(C)Oc3c(C)c(O)c4c(c3C2=O)C2=NC3(CCN(CC(C)C)CC3)NC2=C(NC(=O)/C(C)=C\C=C\[C@H](C)[C@H](O)[C@@H](C)[C@@H](O)[C@@H](C)[C@H](OC(=O)CCC(=O)OCC2CCCN(C)C2)[C@@H]1C)C4=O (stereo partly drawn) [Compound 73]
[1]; HUMC1 strain, RPMI + 10% FCS
  MIC: ≤ 0.002 µg/mL
[2]
  MIC: 0.06 µg/mL (≈ 0.059 µM)
[3]; [4]
  MIC: 1 µg/mL

## CO[C@H]1/C=C/O[C@@]2(C)Oc3c(C)c(O)c4c(c3C2=O)C2=NC3(CCN(CC(C)C)CC3)NC2=C(NC(=O)/C(C)=C\C=C\[C@H](C)[C@H](O)[C@@H](C)[C@@H](O)[C@@H](C)[C@H](OC(=O)CC(=O)N2CCC(n3c(=O)[nH]c5ccccc53)CC2)[C@@H]1C)C4=O [Compound 46]
[1]; HUMC1 strain, RPMI + 10% FCS
  MIC: 0.03 µg/mL
[2]
  MIC: 0.25 µg/mL (≈ 0.229 µM)
[3]; [4]
  MIC: 0.5 µg/mL

## CO[C@H]1/C=C/O[C@@]2(C)Oc3c(C)c(O)c4c(c3C2=O)C2=NC3(CCN(CC(C)C)CC3)NC2=C(NC(=O)/C(C)=C\C=C\[C@H](C)[C@H](O)[C@@H](C)[C@@H](O)[C@@H](C)[C@H](OC(=O)CC(=O)N2CCC([C@@H](O)c3nccn3C)CC2)[C@@H]1C)C4=O [Compound 53]
[1]; HUMC1 strain, RPMI + 10% FCS
  MIC: ≤ 0.002 µg/mL
[2]
  MIC: 0.125 µg/mL (≈ 0.117 µM)
[3]; [4]
  MIC: 1 µg/mL

## CO[C@H]1/C=C/O[C@@]2(C)Oc3c(C)c(O)c4c(c3C2=O)C2=NC3(CCN(CC(C)C)CC3)NC2=C(NC(=O)/C(C)=C\C=C\[C@H](C)[C@H](O)[C@@H](C)[C@@H](O)[C@@H](C)[C@H](OC(=O)CC(=O)OCC(C)C)[C@@H]1C)C4=O [Compound 27]
[1]; HUMC1 strain, RPMI + 10% FCS
  MIC: 0.016 µg/mL
[2]
  MIC: 0.125 µg/mL (≈ 0.132 µM)
[3]; [4]
  MIC: 4 µg/mL

## CO[C@H]1/C=C/O[C@@]2(C)Oc3c(C)c(O)c4c(c3C2=O)C2=NC3(CCN(CC(C)C)CC3)NC2=C(NC(=O)/C(C)=C\C=C\[C@H](C)[C@H](O)[C@@H](C)[C@@H](O)[C@@H](C)[C@H](OC(=O)CC(=O)N2CCN(CCN3CCOCC3)CC2)[C@@H]1C)C4=O [Compound 115]
[1]; HUMC1 strain, RPMI + 10% FCS
  MIC: ≤ 0.002 µg/mL
[2]
  MIC: 0.06 µg/mL (≈ 0.056 µM)
[3]; [4]
  MIC: 0.5 µg/mL

## CO[C@H]1/C=C/O[C@@]2(C)Oc3c(C)c(O)c4c(c3C2=O)C2=NC3(CCN(CC(C)C)CC3)NC2=C(NC(=O)/C(C)=C\C=C\[C@H](C)[C@H](O)[C@@H](C)[C@@H](O)[C@@H](C)[C@H](OC(=O)CC(=O)N2CCC(N(C)C)CC2)[C@@H]1C)C4=O [Compound 7]
[1]; HUMC1 strain, RPMI + 10% FCS
  MIC: ≤ 0.002 µg/mL
[2]
  MIC: 0.016 µg/mL (≈ 0.016 µM)
[3]; [4]
  MIC: 1 µg/mL

## COc1cc(CC2CCN(C(=O)CC(=O)O[C@H]3[C@H](C)[C@H](O)[C@H](C)[C@@H](O)[C@@H](C)/C=C/C=C(/C)C(=O)NC4=C5NC6(CCN(CC(C)C)CC6)N=C5c5c(c(O)c(C)c6c5C(=O)[C@@](C)(O/C=C/[C@H](OC)[C@H]3C)O6)C4=O)CC2)cc(C(F)(F)F)c1 [Compound 51]
[1]; HUMC1 strain, RPMI + 10% FCS
  MIC: 0.06 µg/mL
[2]
  MIC: 2 µg/mL (≈ 1.74 µM)
[3]; [4]
  MIC: 1 µg/mL

## CO[C@H]1/C=C/O[C@@]2(C)Oc3c(C)c(O)c4c(c3C2=O)C2=NC3(CCN(CC(C)C)CC3)NC2=C(NC(=O)/C(C)=C\C=C\[C@H](C)[C@H](O)[C@@H](C)[C@@H](O)[C@@H](C)[C@H](OC(=O)C(C)C(=O)N2CCC(n3c(=O)[nH]c5ccccc53)CC2)[C@@H]1C)C4=O (stereo partly drawn) [Compound 42]
[1]; HUMC1 strain, RPMI + 10% FCS
  MIC: 0.03 µg/mL
[2]
  MIC: 0.5 µg/mL (≈ 0.453 µM)
[3]; [4]
  MIC: 0.5 µg/mL

## CO[C@H]1/C=C/O[C@@]2(C)Oc3c(C)c(O)c4c(c3C2=O)C2=NC3(CCN(CC(C)C)CC3)NC2=C(NC(=O)/C(C)=C\C=C\[C@H](C)[C@H](O)[C@@H](C)[C@@H](O)[C@@H](C)[C@H](OC(=O)CCC(=O)NCCN(C)C)[C@@H]1C)C4=O [Compound 72]
[1]; HUMC1 strain, RPMI + 10% FCS
  MIC: ≤ 0.002 µg/mL
[2]
  MIC: 0.06 µg/mL (≈ 0.0615 µM)
[3]; [4]
  MIC: 1 µg/mL

## CO[C@H]1/C=C/O[C@@]2(C)Oc3c(C)c(O)c4c(c3C2=O)C2=NC3(CCN(CC(C)C)CC3)NC2=C(NC(=O)/C(C)=C\C=C\[C@H](C)[C@H](O)[C@@H](C)[C@@H](O)[C@@H](C)[C@H](OC(=O)CC(=O)NCCN2CCOCC2)[C@@H]1C)C4=O [Compound 23]
[1]; HUMC1 strain, RPMI + 10% FCS
  MIC: ≤ 0.002 µg/mL
[2]
  MIC: 0.03 µg/mL (≈ 0.0299 µM)
[3]; [4]
  MIC: 1 µg/mL

## CO[C@H]1/C=C/O[C@@]2(C)Oc3c(C)c(O)c4c(c3C2=O)C2=NC3(CCN(CC(C)C)CC3)NC2=C(NC(=O)/C(C)=C\C=C\[C@H](C)[C@H](O)[C@@H](C)[C@@H](O)[C@@H](C)[C@H](OC(=O)CC(=O)N2CCc3[nH]c5ccccc5c3C2)[C@@H]1C)C4=O [Compound 65]
[1]; HUMC1 strain, RPMI + 10% FCS
  MIC: 0.016 µg/mL
[2]
  MIC: 0.125 µg/mL (≈ 0.12 µM)
[3]; [4]
  MIC: 0.5 µg/mL

## CO[C@H]1/C=C/O[C@@]2(C)Oc3c(C)c(O)c4c(c3C2=O)C2=NC3(CCN(CC(C)C)CC3)NC2=C(NC(=O)/C(C)=C\C=C\[C@H](C)[C@H](O)[C@@H](C)[C@@H](O)[C@@H](C)[C@H](OC(=O)CC(=O)N2CCN(C3CCN(C)CC3)CC2)[C@@H]1C)C4=O [Compound 112]
[1]; HUMC1 strain, RPMI + 10% FCS
  MIC: 0.004 µg/mL
[2]
  MIC: 0.125 µg/mL (≈ 0.118 µM)
[3]; [4]
  MIC: 1 µg/mL
